In patent US20250073185A1, “Composition Including Benzylaminoethanol Derivative as Active Ingredient for Prevention or Treatment of Metabolic Disease” (JLBIOTHERAPEUTICS, priority 2021, published 2025):

Test system: 3T3-L1 cells
Experiment: Cytotoxicity measurement (WST assay, EZ-Cytox)
Format: cell-based
Settings: 3T3-L1 cells, 0.1, 1, 5, 10 and 25 μM, 48 hours
Experimental: After 48 hours, 10 μl of EZ-Cytox was added to each cell culture which was then incubated for 30 minutes, and the absorbance at 450 nm was measured using a microplate reader.

OCCNCc1cc(Br)ccc1OCc1ccc(F)c(C(F)(F)F)c1 [AZ1, 2-(5-bromo-2-(4-fluoro-3-(trifluoromethyl)benzyloxy)benzylamino)ethanol] was tested, and the “cytotoxicity (cell viability vs untreated cells)” value was “did not exhibit cytotoxicity”.
